Molecules are shown by their SMILES. Activity calls are given as the source filed them. How the calls were made is not given here.

Chain of Ribosomal protein S6 kinase beta-1 (Homo sapiens) (P23443 whole entry, looked up): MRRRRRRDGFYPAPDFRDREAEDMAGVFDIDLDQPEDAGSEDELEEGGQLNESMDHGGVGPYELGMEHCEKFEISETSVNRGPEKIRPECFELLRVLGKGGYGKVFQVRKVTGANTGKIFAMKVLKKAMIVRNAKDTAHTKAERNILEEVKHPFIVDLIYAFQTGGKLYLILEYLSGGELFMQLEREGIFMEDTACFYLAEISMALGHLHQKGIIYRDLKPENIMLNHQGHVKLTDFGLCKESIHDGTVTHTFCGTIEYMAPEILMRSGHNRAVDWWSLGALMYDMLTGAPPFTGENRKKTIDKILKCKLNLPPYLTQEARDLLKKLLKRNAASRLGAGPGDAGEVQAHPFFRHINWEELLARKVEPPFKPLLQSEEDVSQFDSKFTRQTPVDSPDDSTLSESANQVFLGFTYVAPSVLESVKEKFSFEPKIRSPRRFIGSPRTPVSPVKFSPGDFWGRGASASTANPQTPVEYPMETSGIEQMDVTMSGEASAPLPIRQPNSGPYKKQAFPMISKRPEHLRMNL

The experiment has as its target Ribosomal protein S6 kinase beta-1 (Homo sapiens) (UniProt P23443). The experiment is described as follows: p70S6K1 kinase inhibitors, biochemical, LANCE Ultra TR-FRET (AID 1117328). The conditions noted are these: LANCE Ultra TR-FRET kinase assay, at 20 µM (top of the series). Background: Time-resolved FRET reads energy transfer from a long-lived donor to a nearby acceptor.
As a reminder, the inhibition is the drop in the measured response relative to a control, in per cent. Regarding `COC(=O)Nc1nc2ccc(S(=O)c3ccccc3)cc2[nH]1` (configuration not stated), the inhibition is -8.8% (inactive). Next, `CCCCCCNC(=O)n1cc(F)c(=O)[nH]c1=O`: -0.86% (inactive); `CCCOc1ccc2nc(NC(=O)OC)[nH]c2c1`: -4.03% (inactive); `C=C(C)[C@H]1Cc2c(ccc3c2O[C@@H]2COc4cc(OC)c(OC)cc4[C@@H]2C3=O)O1`: -6.37% (inactive). The figure for `Cc1ccc2nc(N)[nH]c(=O)c2c1Sc1ccncc1` is 50.1%; for `CCCN(CCC)C(=O)C(CCC(=O)OCCCN1CCN(CCOC(=O)Cc2c(C)n(C(=O)c3ccc(Cl)cc3)c3ccc(OC)cc23)CC1)NC(=O)c1ccccc1` (configuration not stated) it is -0.47% (inactive). For the compound `COc1cc(-c2ccc(=O)[nH]n2)ccc1OC(F)F`, the inhibition was 3.71% (inactive). The figure for `COc1c(C)c2c(c(O)c1C/C=C(\C)CCC(=O)OCCN1CCOCC1)C(=O)OC2` is 1.51% (inactive); for `COc1cc2c(c(OC)c1OC)-c1ccc(OC)c(=O)cc1[C@@H](NC(C)=O)CC2` it is -2.55% (inactive); for `CCC1=C[C@@H]2CN(C1)Cc1c([nH]c3ccccc13)[C@@](C(=O)OC)(c1cc3c(cc1OC)N(C)[C@H]1[C@@](O)(C(=O)OC)[C@H](OC(C)=O)[C@]4(CC)C=CCN5CC[C@]31[C@@H]54)C2` it is -0.16% (inactive). The figure for `CC[C@]1(O)C[C@@H]2CN(CCc3c([nH]c4ccccc34)[C@@](C(=O)OC)(c3cc4c(cc3OC)N(C)[C@H]3[C@@](O)(C(=O)OC)[C@H](OC(C)=O)[C@]5(CC)C=CCN6CC[C@]43[C@@H]65)C2)C1` is -1.14% (inactive). The figure for `O=[N+]([O-])c1ccc(O)c2ncccc12` is 37.6% (inactive); for `O=C(CCCCCCC(=O)Nc1ccccc1)NO` it is 4.26% (inactive); for `CCCCCCCCCCCCCCCCCCNC(=O)OC1CCN(C(=O)OC[C@H](COC(=O)N(Cc2cccc[n+]2CC)C(=O)c2ccccc2OC)OC)CC1` it is -363% (inactive). As to `O=C(O)c1ccc(-n2nc(-c3ccccc3O)nc2-c2ccccc2O)cc1`, the inhibition was 0.21% (inactive). Next, `O=c1[nH]c(=O)n([C@H]2C[C@H](O)[C@@H](CO)O2)cc1C(F)(F)F`: 5.58% (inactive). Next, `CC[C@]1(O)C[C@H]2CN(CCc3c([nH]c4ccccc34)[C@@](C(=O)OC)(c3cc4c(cc3OC)N(C=O)[C@H]3[C@@](O)(C(=O)OC)[C@H](OC(C)=O)[C@]5(CC)C=CCN6CC[C@]43[C@@H]65)C2)C1`: 5.42% (inactive). Next, `COCc1c(C(C)C)nc(C(C)C)c(/C=C/[C@@H](O)C[C@@H](O)CC(=O)O)c1-c1ccc(F)cc1`: 1.86% (inactive); `Oc1c(I)cc(I)c2cccnc12`: 1.27% (inactive); `CNC(=O)c1cc(Oc2ccc(NC(=O)Nc3ccc(Cl)c(C(F)(F)F)c3)cc2)ccn1`: 64.8%. Regarding `CCN(CC)CCOc1ccc(/C(=C(\Cl)c2ccccc2)c2ccccc2)cc1`, the inhibition was 7.41% (inactive). With `O=C(NOCC1CC1)c1ccc(F)c(F)c1Nc1ccc(I)cc1Cl`, the inhibition is -1.64% (inactive). As to `CC(C)(C)C1CCC(CC2=C(O)c3ccccc3C(=O)C2=O)CC1` (configuration not stated), the inhibition is -2.09% (inactive).

`C=CC(=O)Nc1cc2c(Nc3ccc(F)c(Cl)c3)ncnc2cc1OCCCN1CCOCC1`: the inhibition was 10.8% (inactive). The figure for `CCC(C)n1ncn(-c2ccc(N3CCN(c4ccc(OC[C@H]5CO[C@](Cn6cncn6)(c6ccc(Cl)cc6Cl)O5)cc4)CC3)cc2)c1=O` (some centres not stated) is -9.45% (inactive). On to `COc1ccc(-c2nc3ccc(C4=NNC(=O)CC4C)cc3[nH]2)cc1` (configuration not stated), for which the inhibition is -32.5% (inactive). The figure for `CC(C)C[C@H](NC(=O)[C@H](CCc1ccccc1)NC(=O)CN1CCOCC1)C(=O)N[C@@H](Cc1ccccc1)C(=O)N[C@@H](CC(C)C)C(=O)[C@@]1(C)CO1` is -1.98% (inactive). On to `O=c1[nH]c(=O)n([C@H]2C[C@H](O)[C@@H](CO)O2)cc1F`, for which the inhibition was -6.04% (inactive). The figure for `COc1cc([C@@H]2c3cc4c(cc3[C@H](O)[C@H]3COC(=O)[C@H]23)OCO4)cc(OC)c1OC` is 3.8% (inactive).

On to `CC(C)(C)C(=O)OCOP(=O)(COCCn1cnc2c(N)ncnc21)OCOC(=O)C(C)(C)C`, for which the inhibition was -0.94% (inactive). Consider `Oc1c(Cl)cc(Cl)cc1Sc1cc(Cl)cc(Cl)c1O`, for which the inhibition is 40.3% (inactive). For the compound `CN1CC[C@H](c2c(O)cc(O)c3c(=O)cc(-c4ccccc4Cl)oc23)[C@H](O)C1`, the inhibition is 48.6% (inactive). Next, `Cc1cc2c(C(C)C)c(O)c(O)c(C=O)c2c(O)c1-c1c(C)cc2c(C(C)C)c(O)c(O)c(C=O)c2c1O`: -7.01% (inactive); `O=c1c(-c2ccccc2)c1-c1ccccc1`: 5.11% (inactive); `Cc1cc(C)c(/C=C2\C(=O)Nc3ccccc32)[nH]1`: 45.3% (inactive). On to `Nc1nc(=S)c2[nH]cnc2[nH]1`, for which the inhibition was 3.34% (inactive). Next, `COc1cc(NCc2ccc3nc(N)nc(N)c3c2C)cc(OC)c1OC`: 38% (inactive); `COc1cccc2c1C(=O)c1c(O)c3c(c(O)c1C2=O)C[C@@](O)(C(C)=O)C[C@@H]3O[C@H]1C[C@H](N)[C@H](O)[C@H](C)O1`: -19.5% (inactive); `COC(=O)Nc1nc2ccc(Sc3ccccc3)cc2[nH]1`: -5.93% (inactive).

As for `CCCCCCCCCCCCCCCC[n+]1ccccc1`, the inhibition is -110% (inactive). The figure for `CNC(=O)c1ccccc1Sc1ccc2c(/C=C/c3ccccn3)n[nH]c2c1` is -17.9% (inactive). Next, `CCCCC1C(=O)N(c2ccccc2)N(c2ccc(O)cc2)C1=O` (configuration not stated): 0.82% (inactive).

For the compound `[O-][n+]1ccccc1SSc1cccc[n+]1[O-]`, the inhibition was -10.6% (inactive).

`COC(=O)[C@H]1[C@H]2C[C@@H]3c4[nH]c5cc(OC)ccc5c4CCN3C[C@H]2C[C@@H](OC(=O)/C=C/c2ccc(O)c(OC)c2)[C@@H]1OC`: the inhibition is 7.92% (inactive). `Cc1ccc(Nc2nccc(N(C)c3ccc4c(C)n(C)nc4c3)n2)cc1S(N)(=O)=O`: the inhibition was 5.82% (inactive).

Regarding `NC(=NCCCCCCN=C(N)/N=C(\N)Nc1ccc(Cl)cc1)/N=C(\N)Nc1ccc(Cl)cc1`, the inhibition was 29.9% (inactive). Next, `Cc1nc2ccc(CN(C)c3ccc(C(=O)N[C@@H](CCC(=O)O)C(=O)O)s3)cc2c(=O)[nH]1`: 26.6% (inactive). The figure for `COc1cc2nc(N3CCN(C(=O)c4ccco4)CC3)nc(N)c2cc1OC` is 28.5% (inactive). For the compound `CC(C)C[C@H](NC(=O)[C@H](Cc1ccccc1)NC(=O)c1cnccn1)B(O)O`, the inhibition was 6.59% (inactive). The figure for `Cn1cnc([N+](=O)[O-])c1Sc1ncnc2nc[nH]c12` is -0.72% (inactive).

With `Cc1cc(C2CCCCC2)n(O)c(=O)c1`, the inhibition is -2.62% (inactive). The figure for `CCCCc1oc2ccccc2c1C(=O)c1cc(I)c(OCCN(CC)CC)c(I)c1` is -4.08% (inactive); for `O=C(Nc1ccc([N+](=O)[O-])cc1Cl)c1cc(Cl)ccc1O` it is 49.9% (inactive); for `Cc1cc(O)c2ccccc2c1O` it is 39.1% (inactive). The figure for `CCCCCCCCCCCCCC[N+](C)(C)C` is 3.96% (inactive); for `CN(C)c1ccc2nc3ccc(=[N+](C)C)cc-3sc2c1` it is -350% (inactive). The figure for `O=C(CCl)c1ccc(Cl)cc1Cl` is -8.03% (inactive). As for `COc1ccc(-c2ccc3cc(C(=O)O)ccc3c2)cc1C12CC3CC(CC(C3)C1)C2`, the inhibition is 29% (inactive). In the case of `C[n+]1c2cc(N)ccc2cc2ccc(N)cc21` (tested in a mixture with another compound), the inhibition was 65.3%. Turning to `CCN(CC)CCNC(=O)c1c(C)[nH]c(/C=C2\C(=O)Nc3ccc(F)cc32)c1C`, the inhibition was 91.7%.

With `COc1ccc2cc1Oc1ccc(cc1)C[C@H]1c3c(cc4c(c3Oc3cc5c(cc3OC)CCN(C)[C@@H]5C2)OCO4)CCN1C`, the inhibition is -3.96% (inactive). Next, `Oc1c(Cl)cc(Cl)c2cccnc12`: 8.07% (inactive).

As to `COC(=O)Nc1nc2ccc(C(=O)c3ccccc3)cc2[nH]1`, the inhibition was -18.7% (inactive). Take `Cc1nc(N)nc(N)c1-c1ccc(Cl)c(Cl)c1`: the inhibition was 5.16% (inactive). The figure for `Cc1cc(=O)c2c(O)c3c(O)cc(=O)c4c3c3c(cc(O)c1c23)C(C)(C)C=4O` is 12.5% (inactive); for `COC(=O)Nc1nc2ccc(C(=O)C3CC3)cc2[nH]1` it is 12.7% (inactive). Regarding `CCCSc1ccc2nc(NC(=O)OC)[nH]c2c1`, the inhibition is -2.9% (inactive).

For the compound `CCN(CC)CCNc1ccc(CO)c2sc3ccccc3c(=O)c12`, the inhibition was 37.2%. For `CC[C@@H]([C@H](C)O)n1ncn(-c2ccc(N3CCN(c4ccc(OC[C@@H]5CO[C@@](Cn6cncn6)(c6ccc(F)cc6F)C5)cc4)CC3)cc2)c1=O`, the inhibition was -23% (inactive). The figure for `Cc1ccc([N+](=O)[O-])[c]2c1[O][Hg]2` is 33.5% (inactive).

Take `COC(=O)c1nc(Cl)c(Cl)nc1N`: the inhibition is 1.07% (inactive). Next, `CC(=O)Oc1ccc(C2(c3ccc(OC(C)=O)cc3)Oc3ccccc3NC2=O)cc1`: -1.96% (inactive); `Nc1ccc2cc3ccc(N)cc3nc2c1`: -285% (inactive). Next, `Cc1nc(Nc2ncc(C(=O)Nc3c(C)cccc3Cl)s2)cc(N2CCN(CCO)CC2)n1`: 5.32% (inactive); `S=c1nc[nH]c2nc[nH]c12`: 22.2% (inactive); `CC(=O)[C@]1(O)Cc2c(O)c3c(c(O)c2[C@@H](O[C@H]2C[C@H](N)[C@H](O)[C@H](C)O2)C1)C(=O)c1ccccc1C3=O`: -128% (inactive).

`CSc1ccc2c(c1)C(N1CCN(C)CC1)Cc1ccccc1S2` (configuration not stated): the inhibition was 6.51% (inactive).

The values above are taken from PubChem BioAssay AID1117328 (Cheminformatics & Chemogenomics Research Group (CCRG), …, 2015).
